Results as given in patent publication US9851354B2, “Methods of treating fragile X syndrome and related disorders” (Alcobra Ltd., priority 2013, dated 2017).
Entries after “also recorded” stand apart in the source; their conditions may differ.

Key:
Format in all cases: in vivo, mouse
[1] = system: Fmr1 knockout (KO) or Wild Type (WT) mice; assay: T-maze rewarded alternation task; conditions: 2 months old, 150 mg/kg once daily 7 days, Study 1
Protocol: (§1) Fmr1 knockout mice (KO2) mice (The Dutch-Belgium Fragile X Consortium, 1994), initially obtained from the Jackson Laboratory, and wild type (WT) littermates were generated on a C57BL/6J background and repeatedly backcrossed onto a C57BL/6J background for more than eight generations. The Fmr1 knockout mice were housed in groups of the same genotype in a temperature and humidity controlled room with a 12-h light-dark cycle (lights on from 7 am to 7 pm; testing was conducted during light phase). Room temperature and humidity were recorded continuously in the holding room while food and water were available ad libitum. Testing was conducted on healthy Fmr1 knockout mice and their wild type littermates (N=10 mice per treatment group) at 2 or 6 months of age during the behavioral experiments. Mice were housed in commercial plastic cages and experiments were conducted in line with the requirements of the UK Animals (Scientific Procedures) Act, 1986. All experiments were conducted with experimenters blind to genotype and drug treatment. Animals were allowed a minimum acclimatization period of one week prior to performing any experiment. No prophylactic or therapeutic treatment was administered during the acclimatization period.
(§2) In all cases, saline was used as a vehicle (control).
An elevated or enclosed apparatus in the form of a T (placed horizontally) was used. […]

[2] = system: Fmr1 knockout (KO) or Wild Type (WT) mice; assay: Social approach (sniffing of a juvenile, Trial 1); conditions: for social approach (sniffing bouts) / social approach, duration of sniffing: 2 months old; for social approach (sniffing bouts): Study 1; for social approach, duration of sniffing: Study 2; for duration of sniffing, Trial 1: 150 mg/kg ip 7 days
Protocol: as §1, §2
Mice are a social species that engage in easily scored social behaviors including approaching, following, sniffing, grooming, aggressive encounters, sexual interactions, parental behaviors, nesting, and sleeping in a group huddle. Social approach in mice was evaluated by sniffing duration directed to a novel mouse.
Mice were placed in a test arena/cage of the same order of magnitude in size as the adult's home cage (40×23×12 cm cage, with a Perspex lid to facilitate viewing the mice) with fresh wood chippings on the floor. A background mouse odor was created by putting in some non-experimental mice into the apparatus prior to testing. Mice were transferred to the experimental room 10-15 min prior to testing. A test subject and a juvenile were placed simultaneously into the test cage. The total duration and number of bouts of social investigation, defined as sniffing and close following (<2 cm from the tail) of the stimulus juvenile by the tested mouse, was assessed for 3 min. 30 min later, the test was repeated using the same stimulus juvenile. Data parameters collected were the total duration and total number of bouts of sniffing for the acquisition and recognition. A social memory ratio was derived, defined as trial 2/trial 1+2. Therefore, no memory (e.g. 20/(20+20)=0.5 and memory (e.g. 10/(20+10)=<0.5.
Multivariate analysis of variance was employed to assess group differences across data. Repeated measures ANOVA were performed for behavioral data. Statistically significant effects in each ANOVA were followed with post hoc comparisons, using the Newman-Keuls test (Study 1) or the Tukey test (Study 2). A p value of less than 0.05 was considered significant.

[3] = system: ERK; assay: Lymphocyte pERK (flow cytometry); conditions: Fmr1 KO mice, 2 months old
Protocol: as §2
(§3) The Ras-Mek-ERK and PI3K-Akt-mToR signaling pathways are involved in mediating activity dependent alterations in gene transcription underlying changes in synaptic plasticity (Klann and Dever, 2004). Phosphorylated ERK and Akt protein expression was measured by western blot analysis as previously described by Lopez Verrilli (Lopez Verrilli et al., 2009). The antibodies employed were anti-phosphospecific antibodies against Akt (1/1000) and kinase (ERK) 1/2 (1/2000) (Cell Signaling Technology, Danvers, Mass., USA). The antibody against phospho-ERK detects phosphorylation at phospho-ERK 1/2 (Thr202/Tyr204) whereas the antibody against phospho-Akt detects phosphorylation at phospho-Akt (Thr308). Total Akt and ERK 1/2 protein content and phosphorylated ERK and Akt were evaluated by blotting membranes with antiphospho-Akt (1/1000) and antiphospho-ERK antibodies (1/2000) (Cell Signaling Technology, Danvers, Mass., USA). Akt or ERK phosphorylation was normalized to protein content in the same sample and expressed as % of change with respect to basal conditions, considering basal levels as 100%. Protein loading was evaluated by stripping and re-blotting membranes with j-actin antibody (1/1000) (Sigma-Aldrich, St. Louis, Mo., USA). Phosphorylated ERK and Akt protein expression in blood lymphocytes was measured by flow cytometry. For lymphocyte biomarker determinations, a FACStar plus (Becton Dickinson) was used with the excitation laser tuned at 488 nm and green fluorescence from FITC (GST) was collected through a 515-545 nm bandpass filter. The mean FITC fluorescence Intensity was calculated in relation to the fluorescence of reference cells. The mean cellular fluorescence intensity (MFI) is directly proportional to the mean number of Ab molecules bound per cell.

[4] = system: Akt; assay: Brain phosphorylation of Akt (western blot)
Protocol: as §2, §3

[5] = system: Fmr1 knockout (KO) or Wild Type (WT) mice; assay: Y-maze water maze left right discrimination; conditions: 2 months old, 150 mg/kg once daily 7 days, Study 1
Protocol: as §1, §2
A clear Perspex Y-maze was filled with 2 cm of water at 20° C. […]

[6] = system: Akt; assay: Lymphocyte pAkt (flow cytometry); conditions: Fmr1 KO mice, 2 months old
Protocol: as §2, §3

[7] = Fmr1 KO mice, 6 months old, 150 mg/kg ip once daily 7 days
[8] = 150 mg/kg oral once daily 7 days
[9] = 300 mg/kg oral once daily 7 days
[10] = Fmr1 KO mice, 2 months old, 150 mg/kg ip 7 days, Study 2

Structure (SMILES): Cc1ncc(CO)c(CO)c1O.O=C1CC[C@@H](C(=O)O)N1 [metadoxine, pyridoxol L,2-pyrrolidon-5 carboxylate]
- T-maze rewarded alternation working memory (latency to reach the correct arm) [1]: reversal being partial; also recorded: significant improvement in memory
- social approach (sniffing bouts) ([2]; Fmr1 KO mice, 150 mg/kg ip once daily 7 days, 150 mg/kg): increased social approach in Fmr1 knockout mice; also recorded: improved social interaction
- social approach, duration of sniffing ([2]; Fmr1 KO mice, 150 mg/kg ip once daily 7 days): reversal was complete
- social approach, duration of sniffing ([2]; Fmr1 KO mice, 150 mg/kg oral once daily 7 days): reversal was complete
- social approach, duration of sniffing ([2]; Fmr1 KO mice, 300 mg/kg oral once daily 7 days): reversal was complete
- social approach, duration of sniffing (Trial 1) [2, 7]: this effect was partial
- social approach, number of sniffing bouts (Trial 1) [2, 7]: did not differ from metadoxine-treated WT mice
- duration of sniffing, Trial 1 ([2]; KO-M: Fmr1 KO mice, 6 months old): 28.4
- social approach (sniffing bouts) ([2]; WT mice, 150 mg/kg ip once daily 7 days): no effect on WT mice
- social approach, duration of sniffing ([2]; WT mice, any dose (150 mg/kg ip, 150 and 300 mg/kg oral)): without effect on WT mice
- social approach, sniffing bouts and duration (Trial 1) ([2]; WT mice, 6 months old, 150 mg/kg ip once daily 7 days): without effect on WT mice
- duration of sniffing, Trial 1 ([2]; WT-M: WT mice, 6 months old): 38.5
- lymphocyte pERK ([3]; 150 mg/kg ip once daily 7 days): normalized overactivated ERK
- lymphocyte pERK [3, 8]: normalized overactivated ERK
- lymphocyte pERK [3, 9]: normalized overactivated ERK
- pAkt levels in hippocampus [4, 10]: complete reversal of activation of Akt
- pAkt levels in pre-frontal cortex [4, 10]: complete reversal of activation of Akt
- pAkt levels in striatum [4, 10]: complete reversal of activation of Akt
- whole brain levels of pAkt [4, 7]: reversed this increase in brain pAkt
- pAkt levels in hippocampus, pre-frontal cortex and striatum ([4]; WT mice, 2 months old, 150 mg/kg ip 7 days, Study 2): without effect on WT mice
- whole brain phosphorylated Akt ([4]; WT mice, 2 months old, 150 mg/kg ip once daily 7 days, Study 1): no effect on WT mice
- whole brain total Akt levels ([4]; any mice (KO or WT), 2 months old, 150 mg/kg ip once daily 7 days, Study 1): no effect
- Y-maze water maze spatial discrimination (incorrect arm entries) [5]: deficit was reduced
- lymphocyte pAkt ([6]; 150 mg/kg ip once daily 7 days): normalized overactivated Akt
- lymphocyte pAkt [6, 8]: normalized overactivated Akt
- lymphocyte pAkt [6, 9]: normalized overactivated Akt
